In patent publication US11957668B2, “Kinase mutation-associated neurodegenerative disorders” (MEMORIAL SLOAN KETTERING CANCER CENTER, priority 2017, dated 2024):

What was measured:
[1] = test system: Csf1r^MeriCreMer; BRAF^V600E; Rosa26^LSL-YFP mice
Method: Mice. […] Genotyping was performed according to protocols described previously for Csf1r^iCre Csf1r^MeriCreMer, CD11^Cre and BRAF^LSL-V600E mice. Cre recombination in Csf1r^MeriCreMer; Rosa26^LSL-YFP; BRAF^LSL-V600E embryos was induced by single injection at E8.5 of 37.5 mg per kg (body weight) of 4-hydroxytamoxifen (OH-TAM, Sigma) into pregnant females. OH-TAM was supplemented with 18.75 mg per kg (body weight) progesterone (Sigma) to counteract the mixed oestrogen agonist effects of tamoxifen, which can result in fetal abortions. Embryonic development was estimated considering the day of vaginal plug formation as 0.5 dpc. […] BRAF^WT and BRAF^VE male and female littermates were assigned randomly into the control or treated group. Scoring of mice was performed blinded and at least weekly by assessing hindlimb reflexes and other behavioral phenotypes such as axial rolling. The investigators were not blinded to allocation during experiments and outcome assessment.
Footprint analysis. Mice were given two trials to run down a runway before the experiment. Mouse forepaws and hindpaws were painted with red and blue ink, respectively. Mice were then allowed to run down a runway lined with white paper. At least four steps from the middle portion of each run were measured for (1) overlap between forepaw and hindpaw placement, (2) stride length, (3) front-base width (the distance between the right and left forelimb strides), and (4) hind-base width (the distance between the right and left hindlimb strides). Mean values were used for graphs and statistical analyses.
As a readout, hind limb clasping reflexes were examined every week and footprint assays were performed as described above before treatment and every 4 weeks during treatment.
To determine the potential effects of BRAF^V600E macrophage clones in adult tissues, a large cohort (n=155) of BRAF^VE mice and littermate controls were analyzed.

[2] = test system: YFP+ microglia; assay: Protein-level expression of inflammatory and adhesion markers in YFP+ microglia and spinal cord (flow cytometry, immunostaining, Bioplex); type: in vivo, mouse; conditions: BRAF^VE mice, following PLX4720 treatment
Method: Preparation of cell suspensions, flow cytometry and cell sorting. Pregnant females were killed by exposure to CO2. Embryos were removed from the uterus, washed in 4° C. phosphate-buffered saline (PBS, Invitrogen) and dissected under a Leica M80 microscope. For blood phenotyping of adult mice, mice were anaesthetized and blood was collected by cardiac puncture. Bone marrow was collected by flushing one leg with 5 ml RPMI (Invitrogen). For flow cytometry experiments, organs were incubated in PBS containing 1 mg/ml collagenase D (Roche), 100 U/ml DNase I (Sigma), 2.4 mg/ml of dispase (Invitrogen) and 3% FCS (Invitrogen) at 37° C. for 30 min prior to mechanical disruption. For embryonic tissue incubation time at 37° C. was reduced to 20 min. For cell sorting, tissues were digested for 30 min at RT in PBS containing 2 mg/ml of collagenase D (Roche), 200 U/ml DNase I (Sigma), 4.8 mg/ml of dispase (Invitrogen), 3% FCS (Invitrogen) and 1 uM of flavopiridol (Sigma) followed by mechanical disruption under a 100 um filter. Cell suspensions were centrifuged at 320 g for 7 min, resuspended in FACS buffer (PBS, 0.5% BSA and 2 mm EDTA) containing purified anti-CD16/32 (1:100 dilution) and 5% normal mouse, 5% normal rat and 5% normal rabbit serum and incubated for 15 min at 4° C. […] For FMO (fluorescence minus one), brain cell suspensions from BRAF^WT and BRAF^VE mice were mixed prior to staining. […]

Compound: CCCS(=O)(=O)Nc1ccc(F)c(C(=O)c2c[nH]c3ncc(Cl)cc23)c1F [PLX4720]
- onset of neurologic disease (cumulative incidence of the ataxic phenotype) ([1]; PLX4720-impregnated chow 417 mg/kg from 3 months of age, preliminary, small group): delays but does not totally prevent the onset of neurologic disease
- disease progression ([1]; ad libitum PLX4720 diet started at one or three months of age): mitigated disease progression in both cases
- BRAF^VE mice alive ([1]; by 9 months of age, PLX4720 diet): 80%
- average clinical score ([1]; by 9 months of age, PLX4720 diet, score scale 1-4): 2
- course of the neurological disease and mortality ([1]; treatment of adult mice with BRAF^V600E mosaicism): slows the course of the neurological disease and reduces its mortality
- expression of Dectin-1 (Clec7a), LFA-1 (CD11a), VLA-4 (CD49d), the Pdgf receptor, Il1b, and Il17a at the protein level [2]: decrease
